Laboratory results as given in patent US11453703B2, “Heterotandem bicyclic peptide complexes” (BicycleTX Limited, priority 2018, dated 2022).
Starred links: 1 amine or outer side, 2 acyl side, 3 side chain; linkers in the order of their positions; H or OH if unused. Positions of bridges follow the written chain, without caps; N, C: chain ends. Non-standard residues stand in square brackets, D forms with d. Residues, ends and D or L forms follow the SMILES beside them. Chains are numbered I, II in the order given. TATA = O=C(CC[*:1])N1CN(C(=O)CC[*:2])CN(C(=O)CC[*:3])C1; X2 = O=C(CCOCCOCCOCCOCCOCCn1cc(CCC(=O)[*:2])nn1)[*:1]; Hyp = O=C(O)[C@@H]1C[C@@H](O)CN1; hArg = N=C(N)NCCCC[C@H](N)C(=O)O; tBuAla = CC(C)(C)C[C@H](N)C(=O)O; Nle = CCCC[C@H](N)C(=O)O

Legend:
CD137 [1] = target: T1, CD137 (Homo sapiens, UniProt Q07011); test: CD137 reporter assay, co-culture with EphA2 tumour cells; assay type: cell-based; set-up: host or cells: Jurkat reporter cells
Method: Culture medium referred to as R1 media is prepared by adding 1% FBS to RPMI-1640 (component of Promega kit CS196005). Serial dilutions of test articles in R1 are prepared in a sterile 96 well-plate. Use 25 μl per well of test articles or R1 (as a background control) to designated wells in white cell culture plate. Tumour cells* are harvested and resuspended at a concentration of 400,000 cells/mL in R1 media. Twenty five (25) μL/well tumour cells are used in white cell culture plate. Jurkat cells (Promega kit CS196005, 0.5 mL) are thawed in the water bath and then added to 5 ml pre-warmed R1 medium. Twenty five (25) μL/well Jurkat cells are used in white cell culture plate. Incubate the cells and test articles for 6h at 37° C., 5% CO2. At the end of 6 h, add 75 μl/well Bio-Glo™ (Promega) and incubate for 10 min before reading luminescence in a plate reader (Clariostar, BMG). The fold change relative to cells (Jurkat cells+Cell line used in co-culture) is calculated and plotted in GraphPad Prism as log(agonist) vs response to determine EC50 (nM) and Fold Induction over background (Max)

CD137 [2] = target: T1, CD137; test: CD137 reporter assay, co-culture with Nectin-4 tumour cells; assay type: cell-based; set-up: host or cells: Jurkat reporter cells;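 also: jurkat reporter cells co-cultured with tumour cells and test article for 6 h, luminescence signal relative to Jurkat plus tumour cells lacking test article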
[3] = tumour target EphA2, co-culture with PC3, 6 h

T1 sequence (Q07011 24-255): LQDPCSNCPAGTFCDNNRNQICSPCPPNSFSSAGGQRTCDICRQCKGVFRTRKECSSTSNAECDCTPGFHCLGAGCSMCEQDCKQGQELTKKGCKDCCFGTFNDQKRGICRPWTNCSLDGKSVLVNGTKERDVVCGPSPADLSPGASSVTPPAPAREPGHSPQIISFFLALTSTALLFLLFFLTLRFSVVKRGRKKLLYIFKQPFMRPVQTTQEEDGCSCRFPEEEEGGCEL

With `CCCC[C@@H]1NC(=O)[C@H](Cc2ccc(O)cc2)NC(=O)[C@@H]2CCCN2C(=O)[C@H](CC(=O)O)NC(=O)[C@H](C)NC(=O)[C@H](Cc2ccccc2)NC(=O)[C@@H]2CSCCC(=O)N3CN(CN(C3)C(=O)CCSC[C@@H](C(=O)N[C@@H](C)C(N)=O)NC1=O)C(=O)CCSC[C@H](NC(C)=O)C(=O)N[C@@H](CC(C)(C)C)C(=O)N1CCC[C@H]1C(=O)N[C@@H](CCCCNC(=O)CCc1cn(CCOCCOCCOCCOCCOCCC(=O)N[C@@H](C)C(=O)N[C@@H](CCCCNC(=N)N)C(=O)N[C@@H](CC(=O)O)C(=O)N[C@H]3CSCCC(=O)N4CN5CN(C4)C(=O)CCSC[C@H](NC(=O)[C@H](CC(C)C)NC(=O)[C@@H]4CCCN4C(=O)[C@H](CC(N)=O)NC(=O)[C@H](C(C)C)NC(=O)[C@H](CC(C)C)NC(=O)[C@@H]4C[C@@H](O)CN4C3=O)C(=O)N[C@@H](CC(C)C)C(=O)N[C@@H](Cc3c[nH]cn3)C(=O)N3CCC[C@H]3C(=O)N[C@H](CC(=O)O)C(=O)N[C@@H](Cc3c[nH]c4ccccc34)C(=O)N[C@@H](CCCCNC(=N)N)C(=O)N[C@H](C(N)=O)CSCCC5=O)nn1)C(=O)N[C@H](C)C(=O)N1CCC[C@H]1C(=O)N[C@@H](Cc1ccc(O)cc1)C(=O)N2` [BCY10574] (I: A[hArg]DC[Hyp]LVNPLCLHP[dD]W[hArg]C-NH2 / II: Ac-C[tBuAla]PK[dA]PYCFADPY[Nle]CA-NH2; linker I:4-I:11-I:18, II:1-II:8-II:15 via TATA; linker I:N-II:4 via X2) as the compound, how does the EC50 (CD137 [1]; [3]) read?
Its EC50 is 1 nM.

And the “Fold Induction over Background” value (CD137 [1]; [3])?
The value was 32 fold.

With `CCCC[C@@H]1NC(=O)[C@H](Cc2ccc(O)cc2)NC(=O)[C@@H]2CCCN2C(=O)[C@H](CC(=O)O)NC(=O)[C@H](C)NC(=O)[C@H](Cc2ccccc2)NC(=O)[C@@H]2CSCCC(=O)N3CN(CN(C3)C(=O)CCSC[C@@H](C(=O)N[C@@H](CNC(=O)CCOCCOCCOCCOCCOCCOCCOCCOCCOCCOCCOCCOCCn3cc(CCC(=O)NCCC(=O)N(C)CC(=O)N(C)CC(=O)N(C)CC(=O)N(C)CC(=O)N(C)CC(=O)N(C)CC(=O)N(C)CC(=O)N(C)CC(=O)N(C)CC(=O)N(C)CC(=O)N[C@@H](C)C(=O)N[C@@H](CCCCNC(=N)N)C(=O)N[C@@H](CC(=O)O)C(=O)N[C@H]4CSCCC(=O)N5CN6CN(C5)C(=O)CCSC[C@H](NC(=O)[C@H](CC(C)C)NC(=O)[C@@H]5CCCN5C(=O)[C@H](CC(N)=O)NC(=O)[C@H](C(C)C)NC(=O)[C@H](CC(C)C)NC(=O)[C@@H]5C[C@@H](O)CN5C4=O)C(=O)N[C@@H](CC(C)C)C(=O)N[C@@H](Cc4c[nH]cn4)C(=O)N4CCC[C@H]4C(=O)N[C@H](CC(=O)O)C(=O)N[C@@H](Cc4c[nH]c5ccccc45)C(=O)N[C@@H](CCCCNC(=N)N)C(=O)N[C@H](C(N)=O)CSCCC6=O)nn3)C(N)=O)NC1=O)C(=O)CCSC[C@H](NC(C)=O)C(=O)N[C@@H](CC(C)(C)C)C(=O)N1CCC[C@H]1C(=O)N[C@@H](CCC(=O)O)C(=O)N[C@H](C)C(=O)N1CCC[C@H]1C(=O)N[C@@H](Cc1ccc(O)cc1)C(=O)N2` [BCY9173] as the compound, how does the “Fold Induction over Background” value (CD137 [1]; tumour target EphA2, co-culture with SC-OV-3, 6 h) read?
Its value is 21 fold.

What does the source list for `CCCC[C@@H]1NC(=O)[C@H](Cc2ccc(O)cc2)NC(=O)[C@@H]2CCCN2C(=O)[C@H](CC(=O)O)NC(=O)[C@H](C)NC(=O)[C@H](Cc2ccccc2)NC(=O)[C@@H]2CSCCC(=O)N3CN(CN(C3)C(=O)CCSC[C@@H](C(=O)N[C@@H](CNC(=O)Cn3cc(CCC(=O)NCCC(=O)N(C)CC(=O)N(C)CC(=O)N(C)CC(=O)N(C)CC(=O)N(C)CC(=O)N(C)CC(=O)N(C)CC(=O)N(C)CC(=O)N(C)CC(=O)N(C)CC(=O)N[C@@H](C)C(=O)N[C@@H](CCCCNC(=N)N)C(=O)N[C@@H](CC(=O)O)C(=O)N[C@H]4CSCCC(=O)N5CN6CN(C5)C(=O)CCSC[C@H](NC(=O)[C@H](CC(C)C)NC(=O)[C@@H]5CCCN5C(=O)[C@H](CC(N)=O)NC(=O)[C@H](C(C)C)NC(=O)[C@H](CC(C)C)NC(=O)[C@@H]5C[C@@H](O)CN5C4=O)C(=O)N[C@@H](CC(C)C)C(=O)N[C@@H](Cc4c[nH]cn4)C(=O)N4CCC[C@H]4C(=O)N[C@H](CC(=O)O)C(=O)N[C@@H](Cc4c[nH]c5ccccc45)C(=O)N[C@@H](CCCCNC(=N)N)C(=O)N[C@H](C(N)=O)CSCCC6=O)nn3)C(N)=O)NC1=O)C(=O)CCSC[C@H](NC(C)=O)C(=O)N[C@@H](CC(C)(C)C)C(=O)N1CCC[C@H]1C(=O)N[C@@H](CCC(=O)O)C(=O)N[C@H](C)C(=O)N1CCC[C@H]1C(=O)N[C@@H](Cc1ccc(O)cc1)C(=O)N2` [BCY10577]?
EC50 (CD137 [1]; [3]): 0.28 nM; Fold Induction over Background (CD137 [1]; [3]): 37 fold

Which fold induction at 0.1 µM (CD137 [1]; tumour target EphA2, co-culture with PC3, at 100 nM, read-out: Fold Induction over Background at 100 nM) does the source give for `CCCC[C@@H]1NC(=O)[C@H](Cc2ccc(O)cc2)NC(=O)[C@@H]2CCCN2C(=O)[C@H](CC(=O)O)NC(=O)[C@H](C)NC(=O)[C@H](Cc2ccccc2)NC(=O)[C@@H]2CSCCC(=O)N3CN(CN(C3)C(=O)CCSC[C@@H](C(=O)N[C@@H](CNC(=O)CCOCCOCCOCCOCCOCCOCCOCCOCCOCCOCCOCCOCCn3cc(CCC(=O)NCCC(=O)N(C)CC(=O)N(C)CC(=O)N(C)CC(=O)N(C)CC(=O)N(C)CC(=O)N(C)CC(=O)N(C)CC(=O)N(C)CC(=O)N(C)CC(=O)N(C)CC(=O)N[C@H](C(=O)NCC(=O)N4CCC[C@H]4C(=O)N[C@H]4CSCCC(=O)N5CN6CN(C5)C(=O)CCSC[C@H](NC(=O)[C@@H]5CCCN5C(=O)[C@H]([C@@H](C)O)NC(=O)[C@@H]5CCCN5C(=O)[C@H](CC(=O)O)NC(=O)[C@H](Cc5c[nH]c7ccccc57)NC(=O)[C@H](CC(C)C)NC4=O)C(=O)N[C@@H](C)C(=O)N[C@@H](CC(N)=O)C(=O)N[C@@H](CC(C)C)C(=O)N[C@@H](Cc4c[nH]cn4)C(=O)N[C@@H](CC(C)C)C(=O)N[C@@H](CCCCNC(=N)N)C(=O)N[C@H](C(N)=O)CSCCC6=O)C(C)C)nn3)C(N)=O)NC1=O)C(=O)CCSC[C@H](NC(=O)[C@H](C)NC(C)=O)C(=O)N[C@@H]([C@@H](C)CC)C(=O)N[C@@H](CCC(=O)O)C(=O)N[C@@H](CCC(=O)O)C(=O)NCC(=O)N[C@@H](CCC(N)=O)C(=O)N[C@@H](Cc1ccc(O)cc1)C(=O)N2` [BCY8943] here?
Its fold induction at 0.1 µM is < 2.

How did the “Fold Induction over Background” value (CD137 [1]; [3]) turn out when `CCCC[C@@H]1NC(=O)[C@H](Cc2ccc(O)cc2)NC(=O)[C@@H]2CCCN2C(=O)[C@H](CC(=O)O)NC(=O)[C@H](C)NC(=O)[C@H](Cc2ccccc2)NC(=O)[C@@H]2CSCCC(=O)N3CN(CN(C3)C(=O)CCSC[C@@H](C(=O)N[C@@H](C)C(N)=O)NC1=O)C(=O)CCSC[C@H](NC(C)=O)C(=O)N[C@@H](CC(C)(C)C)C(=O)N1CCC[C@H]1C(=O)N[C@@H](CCCCNC(=O)CCOCCOCCOCCOCCOCCOCCOCCOCCOCCOCCOCCOCCn1cc(CCC(=O)NCCC(=O)N(C)CC(=O)N(C)CC(=O)N(C)CC(=O)N(C)CC(=O)N(C)CC(=O)N(C)CC(=O)N(C)CC(=O)N(C)CC(=O)N(C)CC(=O)N(C)CC(=O)N[C@@H](C)C(=O)N[C@@H](CCCCNC(=N)N)C(=O)N[C@@H](CC(=O)O)C(=O)N[C@H]3CSCCC(=O)N4CN5CN(C4)C(=O)CCSC[C@H](NC(=O)[C@H](CC(C)C)NC(=O)[C@@H]4CCCN4C(=O)[C@H](CC(N)=O)NC(=O)[C@H](C(C)C)NC(=O)[C@H](CC(C)C)NC(=O)[C@@H]4C[C@@H](O)CN4C3=O)C(=O)N[C@@H](CC(C)C)C(=O)N[C@@H](Cc3c[nH]cn3)C(=O)N3CCC[C@H]3C(=O)N[C@H](CC(=O)O)C(=O)N[C@@H](Cc3c[nH]c4ccccc34)C(=O)N[C@@H](CCCCNC(=N)N)C(=O)N[C@H](C(N)=O)CSCCC5=O)nn1)C(=O)N[C@H](C)C(=O)N1CCC[C@H]1C(=O)N[C@@H](Cc1ccc(O)cc1)C(=O)N2` [BCY10568] was run?
The value was 32 fold.

Which “Fold Induction over Background” value (CD137 [2]) does the source give for `CCCC[C@@H]1NC(=O)[C@H](Cc2ccc(O)cc2)NC(=O)[C@@H]2CCCN2C(=O)[C@H](CC(=O)O)NC(=O)[C@H](C)NC(=O)[C@H](Cc2ccccc2)NC(=O)[C@@H]2CSCCC(=O)N3CN(CN(C3)C(=O)CCSC[C@@H](C(=O)N[C@@H](C)C(N)=O)NC1=O)C(=O)CCSC[C@H](NC(C)=O)C(=O)N[C@@H](CC(C)(C)C)C(=O)N1CCC[C@H]1C(=O)N[C@@H](CCCCNC(=O)CCc1cn(CC(=O)N[C@H]3CSCCC(=O)N4CN5CN(C4)C(=O)CCSC[C@H](NC(=O)[C@@H](CC(=O)O)NC(=O)[C@H](Cc4cccc6ccccc46)NC(=O)[C@@H]4CCCN4C3=O)C(=O)N[C@@H](CCSC)C(=O)N[C@@H](CCCCNC(=N)N)C(=O)N[C@@H](CC(=O)O)C(=O)N[C@@H](Cc3c[nH]c4ccccc34)C(=O)N[C@@H](CO)C(=O)N[C@@H]([C@@H](C)O)C(=O)N3CCC[C@H]3C(=O)N3C[C@H](O)C[C@H]3C(=O)N[C@@H](Cc3c[nH]c4ccccc34)C(=O)N[C@H](C(N)=O)CSCCC5=O)nn1)C(=O)N[C@H](C)C(=O)N1CCC[C@H]1C(=O)N[C@@H](Cc1ccc(O)cc1)C(=O)N2` [BCY11373] here?
Its value is 74 fold.

And the EC50 (CD137 [2]; tumour target Nectin4, co-culture with H1376, 6 h, read-out: EC50)?
Its EC50 is 0.16 nM.
